Test results: patent US10076576B2, “Minimally toxic prodrugs” (priority 2012, dated 2018)
Where “and” joins values, the source holds several entries; their conditions need not be identical. Equal entries are not always repeated.

What was measured:
FAP = target: T1, FAP (Homo sapiens, UniProt Q12884); test: Reactivation assay with purified FAP; format: biochemical; settings: 3 h incubation at 37° C.
T1 sequence (Q12884 1-760): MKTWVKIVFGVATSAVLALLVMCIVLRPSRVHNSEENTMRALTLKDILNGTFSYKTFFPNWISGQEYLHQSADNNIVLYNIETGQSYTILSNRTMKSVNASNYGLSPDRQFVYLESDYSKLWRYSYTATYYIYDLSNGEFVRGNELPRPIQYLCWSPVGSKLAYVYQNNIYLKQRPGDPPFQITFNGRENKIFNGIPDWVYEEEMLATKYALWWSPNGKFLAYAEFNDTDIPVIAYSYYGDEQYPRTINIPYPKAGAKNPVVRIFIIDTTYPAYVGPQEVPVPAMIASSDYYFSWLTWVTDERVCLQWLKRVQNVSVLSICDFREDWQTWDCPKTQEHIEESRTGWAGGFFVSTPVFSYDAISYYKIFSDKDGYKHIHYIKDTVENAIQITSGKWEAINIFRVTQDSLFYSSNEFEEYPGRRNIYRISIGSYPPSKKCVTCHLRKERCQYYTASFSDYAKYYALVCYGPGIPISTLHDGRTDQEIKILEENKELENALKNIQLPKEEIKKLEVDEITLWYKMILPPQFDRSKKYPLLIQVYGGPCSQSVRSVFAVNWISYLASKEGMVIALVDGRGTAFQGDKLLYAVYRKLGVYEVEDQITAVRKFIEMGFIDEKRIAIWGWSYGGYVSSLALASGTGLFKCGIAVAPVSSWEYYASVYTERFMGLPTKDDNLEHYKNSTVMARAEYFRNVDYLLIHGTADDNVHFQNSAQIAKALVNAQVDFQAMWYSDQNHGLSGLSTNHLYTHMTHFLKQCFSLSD
Procedure: (§1) TOP (recombinant human thimet oligopeptidase, R&D systems, Ref 3439-ZN) was diluted at 10 nM in a solution of 50 mM Tris-HCl pH 7.4/0.5M NaCl/0.1M DTT. CD26 and FAP were diluted at 1 μg/mL in a Tris-HCl pH 7.5 buffer. Reactions were initiated by addition of 50 μM of each compound to enzymes solutions (1 V enzyme solution+1 V 100 μM drug solution). Samples were incubated for 0, 1, or 3 hours at 37° C. in a water bath in the presence of purified enzymes. Fifty μL of sample were collected at each time point and processed as described above for human plasma. Activation of Suc-βALAL-dox was tested in parallel as a reference.

CD26 = CD26 (Homo sapiens, UniProt P27487); test: Reactivation assay with purified CD26; format: biochemical; settings: 3 h incubation at 37° C.
Sequence of CD26 (P27487 whole entry): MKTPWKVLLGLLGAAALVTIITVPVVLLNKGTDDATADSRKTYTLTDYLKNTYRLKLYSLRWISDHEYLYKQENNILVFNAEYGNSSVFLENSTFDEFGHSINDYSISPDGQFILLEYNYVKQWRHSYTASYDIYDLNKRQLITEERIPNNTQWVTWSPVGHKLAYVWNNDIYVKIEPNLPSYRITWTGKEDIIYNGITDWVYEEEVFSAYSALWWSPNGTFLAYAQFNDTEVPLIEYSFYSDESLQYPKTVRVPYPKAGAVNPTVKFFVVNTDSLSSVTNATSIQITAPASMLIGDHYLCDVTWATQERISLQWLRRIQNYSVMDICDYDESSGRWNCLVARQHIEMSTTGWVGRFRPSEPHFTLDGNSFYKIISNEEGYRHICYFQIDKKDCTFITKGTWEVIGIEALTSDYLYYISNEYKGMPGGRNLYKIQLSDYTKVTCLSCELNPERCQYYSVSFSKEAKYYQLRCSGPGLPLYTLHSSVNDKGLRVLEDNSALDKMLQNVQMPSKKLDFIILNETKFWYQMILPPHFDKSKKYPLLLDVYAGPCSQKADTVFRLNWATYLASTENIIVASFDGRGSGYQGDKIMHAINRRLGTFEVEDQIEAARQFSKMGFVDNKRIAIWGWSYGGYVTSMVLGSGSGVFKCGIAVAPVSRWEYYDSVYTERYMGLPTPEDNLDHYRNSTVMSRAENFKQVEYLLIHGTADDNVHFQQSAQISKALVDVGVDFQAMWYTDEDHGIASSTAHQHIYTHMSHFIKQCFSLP
Procedure: as §1

tumor cell lines = settings: cited from earlier work
[1] = target: T2, TOP (recombinant human thimet oligopeptidase) (Homo sapiens, UniProt P52888); test: Reactivation assay with purified TOP; format: biochemical; settings: 3 h at 37° C.; for % Metabolites released after 3 h (TOP 5 nM) / TOP 5 nM (cleavage +/−): 50 μM compound
T2 construct: purchased R&D systems 3439-ZN
T2 sequence (P52888 whole entry): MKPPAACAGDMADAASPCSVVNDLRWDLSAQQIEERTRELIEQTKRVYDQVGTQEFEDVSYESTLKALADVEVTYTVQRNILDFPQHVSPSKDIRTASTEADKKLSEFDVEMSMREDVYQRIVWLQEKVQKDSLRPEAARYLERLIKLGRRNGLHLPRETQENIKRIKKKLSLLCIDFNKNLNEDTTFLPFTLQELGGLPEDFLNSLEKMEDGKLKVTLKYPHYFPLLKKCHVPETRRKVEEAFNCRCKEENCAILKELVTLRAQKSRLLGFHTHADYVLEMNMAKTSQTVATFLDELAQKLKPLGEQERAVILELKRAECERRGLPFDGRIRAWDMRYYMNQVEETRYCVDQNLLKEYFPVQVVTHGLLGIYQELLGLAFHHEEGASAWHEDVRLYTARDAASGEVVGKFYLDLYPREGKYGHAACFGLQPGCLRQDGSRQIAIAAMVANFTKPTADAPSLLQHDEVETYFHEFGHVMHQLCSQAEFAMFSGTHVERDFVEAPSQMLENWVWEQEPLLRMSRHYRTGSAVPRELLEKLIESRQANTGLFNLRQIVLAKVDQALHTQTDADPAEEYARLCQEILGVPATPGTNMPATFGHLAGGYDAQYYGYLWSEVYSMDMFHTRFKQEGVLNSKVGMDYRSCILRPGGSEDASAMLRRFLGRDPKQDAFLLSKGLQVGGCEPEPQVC
Procedure: as §1

[2] = test system: LS-174T tumor cell secreted peptidases; test: Reactivation assay in LS174T tumor cell conditioned medium; format: biochemical, human; settings: for activation by tumor cell secreted enzymes (in words): LS174T tumor cell conditioned medium
Procedure: Sub-confluent cultures of LS-174T tumor cells were washed twice with a saline phosphate buffer solution, and fresh culture medium (DMEM-F12 without phenol red) containing 0.02% bovine serum albumin is added (100 μl/cm^2). After 24 hours incubation, the conditioned medium is collected, centrifuged for 10 minutes at 300 g, buffered with 1 M Tris-HCl, pH 7.4 (1 volume of buffer+19 volumes of medium) and concentrated 20 times by […] (cutoff threshold of 10 kDa).
Drug compounds (50 μM) were incubated for 0, 1, 3 or 5 hours at 37° C. in the presence of freshly prepared LS174T tumor cell conditioned medium. Fifty μL of sample were collected at each time point and processed as described above for human plasma.

[3] = target: T3, CD10 (recombinant human neprilysin) (Homo sapiens, UniProt P08473); test: Reactivation assay with purified CD10; format: biochemical; settings: 3 h at 37° C.; for % Metabolites released after 3 h (CD10 10 nM) / CD10 10 nM (cleavage +/−): 50 μM compound
T3 construct: purchased R&D systems 1182-ZN
T3 sequence (P08473 52-750 limits assumed): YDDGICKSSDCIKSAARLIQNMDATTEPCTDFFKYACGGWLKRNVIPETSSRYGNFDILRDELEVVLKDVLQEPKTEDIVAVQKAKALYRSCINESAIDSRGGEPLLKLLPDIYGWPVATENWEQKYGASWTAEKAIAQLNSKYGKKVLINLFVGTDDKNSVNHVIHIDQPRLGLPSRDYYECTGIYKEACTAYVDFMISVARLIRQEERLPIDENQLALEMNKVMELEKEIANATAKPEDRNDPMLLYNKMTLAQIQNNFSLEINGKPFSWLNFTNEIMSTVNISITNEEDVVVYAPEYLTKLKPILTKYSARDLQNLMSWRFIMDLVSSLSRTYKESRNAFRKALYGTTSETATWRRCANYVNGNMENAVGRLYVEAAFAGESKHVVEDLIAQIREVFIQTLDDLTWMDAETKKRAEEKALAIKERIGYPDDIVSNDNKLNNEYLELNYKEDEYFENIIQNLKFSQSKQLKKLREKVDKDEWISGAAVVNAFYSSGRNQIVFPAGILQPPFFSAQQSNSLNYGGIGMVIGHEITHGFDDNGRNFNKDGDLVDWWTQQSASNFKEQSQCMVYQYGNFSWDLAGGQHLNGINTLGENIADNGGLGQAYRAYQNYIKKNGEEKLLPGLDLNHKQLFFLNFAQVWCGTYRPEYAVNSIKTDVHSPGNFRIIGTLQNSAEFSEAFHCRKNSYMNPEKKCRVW

[4] = Stability in citrated human plasma; settings: 5 hours incubation at 37° C. in citrated human plasma (pH7), 50 μM
Procedure: The drug conjugates (50 μM) were mixed with human plasma and incubated for 5 hours at 37° C. in a water bath. […] Supernatant was collected.

[5] = Stability in citrated human blood; settings: 5 hours incubation at 37° C. in citrated human blood, 50 μM
[6] = In vivo toxicity after single iv bolus injection (body weight); parameters: species or system OF-1 mice
Procedure: FIG. 1. Effect of PhAc-peptide-Dox conjugates on the body weight of OF-1 normal mice (n=4). […] Results represent the mean body weight evolution.
The in vivo toxicity was evaluated by monitoring body weight.

[7] = target: dihydrofolate reductase (DHFR) (Homo sapiens, UniProt P00374); settings: cited from earlier work
Sequence of dihydrofolate reductase (DHFR) (P00374 whole entry, species assumed): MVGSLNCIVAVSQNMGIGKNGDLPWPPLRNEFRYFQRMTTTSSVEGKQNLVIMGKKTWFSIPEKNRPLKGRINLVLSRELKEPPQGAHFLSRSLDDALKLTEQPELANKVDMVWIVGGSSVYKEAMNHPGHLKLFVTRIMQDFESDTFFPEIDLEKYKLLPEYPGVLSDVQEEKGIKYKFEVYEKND

COc1cccc2c1C(=O)c1c(O)c3c(c(O)c1C2=O)C[C@@](O)(C(=O)CO)C[C@@H]3O[C@H]1C[C@H](NC(=O)[C@@H]2CCCN2C(=O)CN)[C@H](O)[C@H](C)O1 [GP-Dox, NH2-Gly-Pro-Doxorubicin]
conversion to Dox by FAP (FAP): 62%
conversion to Dox by CD26 (CD26): 97%

COc1cc2cc(c1Cl)N(C)C(=O)C[C@H](OC(=O)[C@H](C)N(C)C(C)=O)[C@]1(C)O[C@H]1[C@H](C)[C@@H]1C[C@@](O)(NC(=O)O1)[C@H](OC)/C=C/C=C(\C)C2 [Maytansine]
fold higher cytotoxicity than the Vinca alkaloids (tumor cell lines): about 100 fold
fold higher toxicity than doxorubicin (tumor cell lines): about 1000 fold

COc1cccc2c1C(=O)c1c(O)c3c(c(O)c1C2=O)CC(O)(C(=O)CO)CC3OC1CC(NC(=O)C(Cc2ccccc2)NC(=O)C(C)NC(=O)C(CC(C)C)NC(=O)C(C)NC(=O)CP(=O)(O)O)C(O)C(C)O1 (stereo not shown) [PhAc-ALAF-Dox, PhAc-ALAF-doxorubicin]
% Metabolites released after 3 h (TOP 5 nM) [1]: <5%
TOP 5 nM (cleavage +/−) [1]: −* (*less than 5% of metabolites detected)
% Metabolites released after 5 h (LS174T CM20xcc) ([2]; 5 h at 37° C., 50 μM compound): 32 ± 15%
activation by tumor cell secreted enzymes (in words) [2]: activated into F-Dox
cleavage by CD10 (in words) [3]: moderately cleaved
% Metabolites released after 3 h (CD10 10 nM) [3]: 24 ± 5%
% metabolites released: Dox [4]: 0%
% metabolites released: F-Dox [4]: 2%
total % metabolites [4]: 2%
% metabolites released: Dox [5]: 5%
% metabolites released: F-Dox [5]: 5%
total % metabolites [5]: 10%

COc1cccc2c1C(=O)c1c(O)c3c(c(O)c1C2=O)CC(O)(C(=O)CO)CC3OC1CC(NC(=O)C(CC(C)C)NC(=O)C(C)NC(=O)C(CC(C)C)NC(=O)C(C)NC(=O)CP(=O)(O)O)C(O)C(C)O1 (stereo not shown) [PhAc-ALAL-Dox, PhAc-ALAL-doxorubicin]
body weight loss (in words) ([6]; 80 μmol/kg single iv): No significant body weight loss
toxicity (in words) ([6]; 160 μmol/kg single iv): high toxicity
% Metabolites released after 3 h (TOP 5 nM) [1]: 44% and 44 ± 6%
% Metabolites released after 5 h (LS174T CM20xcc) ([2]; 5 h at 37° C., 50 μM compound): 65 ± 19%
activation by tumor cell secreted enzymes (in words) [2]: activated
cleavage by CD10 (in words) [3]: not efficiently cleaved
CD10 10 nM (cleavage +/−) [3]: −* (*less than 5% of metabolites detected)
% metabolites released: AL-Dox [4]: 0%
% metabolites released: Dox [4]: <1%
% metabolites released: L-dox [4]: 2%
total % metabolites [4]: 2%
% metabolites released: AL-Dox [5]: 0%
% metabolites released: Dox [5]: 9%
% metabolites released: L-dox [5]: 6%
total % metabolites [5]: 15%

COc1cccc2c1C(=O)c1c(O)c3c(c(O)c1C2=O)CC(O)(C(=O)CO)CC3OC1CC(NC(=O)C(Cc2ccccc2)NC(=O)C2CCCN2C(=O)C(CC(C)C)NC(=O)C(C)NC(=O)CP(=O)(O)O)C(O)C(C)O1 (stereo not shown) [PhAc-ALPF-Dox, PhAc-ALPF-doxorubicin]
% Metabolites released after 3 h (TOP 5 nM) [1]: <5%
TOP 5 nM (cleavage +/−) [1]: −* (*less than 5% of metabolites detected)
% Metabolites released after 5 h (LS174T CM20xcc) ([2]; 5 h at 37° C., 50 μM compound): 11 ± 6%
activation by tumor cell secreted enzymes (in words) [2]: activated into F-Dox
% Metabolites released after 3 h (CD10 10 nM) [3]: 0%
% metabolites released: Dox [4]: 0%
% metabolites released: F-Dox [4]: 0%
total % metabolites [4]: 0%
% metabolites released: Dox [5]: 4%
% metabolites released: F-Dox [5]: 1%
total % metabolites [5]: 5%

Methotrexate
affinity for DHFR relative to folate [7]: ~1000 fold

PhAc-AIGP-doxorubicin
cleavage by TOP (in words) [1]: not cleaved
% Metabolites released after 3 h (TOP 5 nM) [1]: <5%
TOP 5 nM (cleavage +/−) [1]: −* (*less than 5% of metabolites detected)
% Metabolites released after 5 h (LS174T CM20xcc) ([2]; 5 h at 37° C., 50 μM compound): 3 ± 3%
LS174T CM20xcc (activation +/−) ([2]; 5 h at 37° C., conditioned medium concentrated 20 times, 50 μM compound): −* (*less than 5% of metabolites detected)
activation by tumor cell secreted enzymes (in words) [2]: not activated
% Metabolites released after 3 h (CD10 10 nM) [3]: 18% and 18 ± 3%

PhAc-DLGP-doxorubicin
cleavage by TOP (in words) [1]: not cleaved
% Metabolites released after 3 h (TOP 5 nM) [1]: 0%
% Metabolites released after 5 h (LS174T CM20xcc) ([2]; 5 h at 37° C., 50 μM compound): 0%
activation by tumor cell secreted enzymes (in words) [2]: not activated
cleavage by CD10 (in words) [3]: not or very slightly activated
% Metabolites released after 3 h (CD10 10 nM) [3]: 0%

PhAc-GPGP-doxorubicin
cleavage by TOP (in words) [1]: not cleaved
% Metabolites released after 3 h (TOP 5 nM) [1]: 0%
% Metabolites released after 5 h (LS174T CM20xcc) ([2]; 5 h at 37° C., 50 μM compound): 0%
activation by tumor cell secreted enzymes (in words) [2]: not activated
cleavage by CD10 (in words) [3]: not or very slightly activated
% Metabolites released after 3 h (CD10 10 nM) [3]: 0%

PhAc-KLGP-doxorubicin
% Metabolites released after 3 h (TOP 5 nM) [1]: 31% and 31 ± 5%
% Metabolites released after 5 h (LS174T CM20xcc) ([2]; 5 h at 37° C., 50 μM compound): 39 ± 13%
activation by tumor cell secreted enzymes (in words) [2]: mainly GP-Dox is detected
cleavage by CD10 (in words) [3]: not or very slightly activated
% Metabolites released after 3 h (CD10 10 nM) [3]: <5%
CD10 10 nM (cleavage +/−) [3]: −* (*less than 5% of metabolites detected)

PhAc-TSGP-doxorubicin
% Metabolites released after 3 h (TOP 5 nM) [1]: 38% and 38 ± 2%
% Metabolites released after 5 h (LS174T CM20xcc) ([2]; 5 h at 37° C., 50 μM compound): 35 ± 18%
activation by tumor cell secreted enzymes (in words) [2]: mainly GP-Dox is detected
cleavage by CD10 (in words) [3]: not or very slightly activated
% Metabolites released after 3 h (CD10 10 nM) [3]: 0%
